The results in this text go back to patent US9550796B2, “Pyrrolopyrrolone derivatives and their use as BET inhibitors” (NOVARTIS AG, priority 2013, dated 2017).

The subject of one test is THP-1. Briefly: Cell growth inhibition assay (CellTiter-Glo), THP-1. It is filed as cell-based, human. The conditions noted are these: THP-1 cells, 4 days; for GI50: Homo sapiens, 96 h, half-maximal growth inhibition; for THP-1 TGI: total growth inhibition. The method in brief: (§1)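 ATP content was quantified with CellTiter-Glo after 4-day compound treatment (top 10 μM, 3-fold steps) at 37 °C. Readings were background- and day-0-corrected, scaled so vehicle equals 100% and medium equals −100%. Four-parameter fits gave half-maximal (IC50) and total growth inhibition concentrations.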

The target in another test is BRD3 (Homo sapiens (Human), UniProt Q15059). The test can be described thus: TR-FRET in-vitro binding assay for BRD3. The conditions noted are these: 45 nM His-Brd3(20-477), acetyl-histone H4 (AcK 5, 8, 12, 16) peptide. The method in brief: (§2)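 TR-FRET binding read after 35 min incubation at 30° C. Compounds dispensed from 90% DMSO solutions and tested at 8 concentrations in a 13.55 μL total reaction volume.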
Sequence of BRD3 (Q15059 20-477): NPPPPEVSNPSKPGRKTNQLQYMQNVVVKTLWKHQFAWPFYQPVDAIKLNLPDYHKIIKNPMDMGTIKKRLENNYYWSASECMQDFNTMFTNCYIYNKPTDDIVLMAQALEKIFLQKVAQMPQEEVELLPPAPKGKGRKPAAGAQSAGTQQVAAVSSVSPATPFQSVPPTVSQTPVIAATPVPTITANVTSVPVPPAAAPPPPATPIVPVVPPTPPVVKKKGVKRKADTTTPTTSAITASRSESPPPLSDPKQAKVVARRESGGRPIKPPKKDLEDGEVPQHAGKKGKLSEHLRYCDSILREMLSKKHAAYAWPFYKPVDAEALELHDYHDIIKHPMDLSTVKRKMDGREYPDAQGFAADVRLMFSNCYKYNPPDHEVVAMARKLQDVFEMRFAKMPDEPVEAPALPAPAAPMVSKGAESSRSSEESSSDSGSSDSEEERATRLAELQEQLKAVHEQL

Another test has as its target CREBBP (Homo sapiens (Human), UniProt Q92793). Briefly: AlphaScreen in-vitro binding assay for CREBBP. The settings on record: 324 nM His-CREBBP (1081-1197), acetyl-histone H4 (AcK 5, 8, 12) peptide. The essentials: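 IC50 values were derived by non-linear regression of percent inhibition across 8 compound concentrations. Protein was His-tagged CREBBP bromodomain (1081-1197), peptide acetyl-histone H4 (AcK 5, 8, 12), in HEPES pH 7.5 buffer. Read-out was AlphaScreen with Ni-chelate acceptor and streptavidin donor beads, 35 min at 30° C then 60 min at RT.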

Another test deals with BRD2 (Homo sapiens (Human), UniProt P25440). The test can be described thus: TR-FRET in-vitro binding assay for BRD2. The conditions noted are these: 45 nM His-Brd2(60-472), acetyl-histone H4 (AcK 5, 8, 12, 16) peptide. The essentials: as §2
Sequence of BRD2 (P25440 60-472): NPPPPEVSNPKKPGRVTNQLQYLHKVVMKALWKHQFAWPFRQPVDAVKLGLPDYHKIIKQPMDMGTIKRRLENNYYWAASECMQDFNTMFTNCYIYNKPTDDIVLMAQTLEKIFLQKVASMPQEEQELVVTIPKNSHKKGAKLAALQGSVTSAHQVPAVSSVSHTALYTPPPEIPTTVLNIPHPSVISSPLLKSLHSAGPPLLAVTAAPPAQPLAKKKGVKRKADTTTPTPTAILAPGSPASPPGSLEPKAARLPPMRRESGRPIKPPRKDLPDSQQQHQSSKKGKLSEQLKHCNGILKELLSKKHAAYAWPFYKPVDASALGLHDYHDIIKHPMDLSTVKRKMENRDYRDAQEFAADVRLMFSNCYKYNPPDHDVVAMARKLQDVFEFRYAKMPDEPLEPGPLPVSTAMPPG
The next test has as its target BRD4 (Homo sapiens (Human), UniProt O60885). The test can be described thus: TR-FRET in-vitro binding assay for BRD4. The settings on record: 45 nM His-Brd4(44-477), acetyl-histone H4 (AcK 5, 8, 12, 16) peptide. The method in brief: as §2
A further test deals with K-562. The test can be described thus: Cell growth inhibition assay (CellTiter-Glo), K-562. The test is classed as cell-based, human. The conditions noted are these: K-562 cells, 4 days; for GI50: Homo sapiens, K562, 96 h, half-maximal growth inhibition; for K-562 TGI: total growth inhibition. The essentials:
as §1

A further test concerns MV-4-11. The test can be described thus: Cell growth inhibition assay (CellTiter-Glo), MV-4-11. It is filed as cell-based, human. The settings on record: MV-4-11 cells, 4 days; for GI50: Homo sapiens, MV4-11, 96 h, half-maximal growth inhibition; for MV-4-11 TGI: total growth inhibition. The essentials: as §1

Where only a bound is given, the exact number is not on record here.

Sequence of CREBBP (Q92793 1081-1197): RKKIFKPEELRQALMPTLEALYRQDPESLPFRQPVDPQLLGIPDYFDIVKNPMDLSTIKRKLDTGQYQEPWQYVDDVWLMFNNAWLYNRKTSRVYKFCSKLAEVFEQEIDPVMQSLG

On to `Cc1cc(N2C(=O)c3cc(-c4ccccn4)n(C)c3C2c2ccc(Cl)cc2)cn(C)c1=O` (stereo not drawn) [Example 52, 6-(4-chlorophenyl)-5-(1,5-dimethyl-6-oxo-1,6-dihydropyridin-3-yl)-1-methyl-2-(pyridin-2-yl)-5,6-dihydropyrrolo[3,4-b]pyrrol-4(1H)-one], for which the GI50 came out at 776 nM with THP-1, 2750 nM in the test on K-562 and 872 nM in the test with MV-4-11. The “THP-1 TGI” value in the test on THP-1 was found to be 2630 nM. Besides, the IC50 at BRD3 was determined as 54 nM; on CREBBP, 720 nM; at BRD2 it was 67 nM; at BRD4 it was 55.3 nM. Further, the “K-562 TGI” value in the test with K-562 is greater than 10000 nM. Besides, in the test on MV-4-11, the “MV-4-11 TGI” value is 2355 nM.
As for `Cc1cc(N2C(=O)c3cc[nH]c3C2c2ccc(Cl)cc2)cn2c(C)nnc12` (stereo not drawn) [Example 21, 6-(4-chlorophenyl)-5-(3,8-dimethyl-[1,2,4]triazolo[4,3-a]pyridin-6-yl)-5,6-dihydropyrrolo[3,4-b]pyrrol-4(1H)-one], the GI50 in the test on THP-1 was 63.3 nM; with K-562 it was 246 nM; in the test on MV-4-11, 45.2 nM. For the same compound, in the test on THP-1, the “THP-1 TGI” value was 178 nM. Further, the IC50 on BRD3 came to 53 nM; on CREBBP it was 5100 nM; at BRD2, 82 nM; on BRD4, 47 nM. Also, the “K-562 TGI” value in the test with K-562 was greater than 10000 nM. Besides, the “MV-4-11 TGI” value in the test on MV-4-11 is 81.05 nM.
On to `Cn1c(-c2ccn(C)c(=O)c2)cc2c1C(c1ccc(Cl)cc1)N(c1cc(Cl)c(=O)n(C)c1)C2=O` (stereo not drawn) [Example 41, 5-(5-chloro-1-methyl-6-oxo-1,6-dihydropyridin-3-yl)-6-(4-chlorophenyl)-1-methyl-2-(1-methyl-2-oxo-1,2-dihydropyridin-4-yl)-5,6-dihydropyrrolo[3,4-b]pyrrol-4(1H)-one], for which the GI50 in the test on THP-1 stood at 167 nM; in the test with K-562, 517 nM; in the test with MV-4-11, 78.7 nM. For the same compound, in the test on THP-1, the “THP-1 TGI” value came to 307 nM. The IC50 was 65.5 nM at BRD3, 535 nM on CREBBP, 83 nM at BRD2 and 85 nM on BRD4. Also, in the test on K-562, the “K-562 TGI” value is greater than 10000 nM. For the same compound, the “MV-4-11 TGI” value in the test on MV-4-11 came out at 128 nM.
In the case of `Cc1cc(N2C(=O)c3c(NC(=O)OC(C)(C)C)cn(C)c3C2c2ccc(Cl)cc2)cn2c(C)nnc12` (stereo not drawn) [Example 102, Tert-butyl (6-(4-chlorophenyl)-5-(3,8-dimethyl-[1,2,4]triazolo[4,3-a]pyridin-6-yl)-1-methyl-4-oxo-1,4,5,6-tetrahydropyrrolo[3,4-b]pyrrol-3-yl)carbamate], the GI50 with THP-1 worked out at 53.3 nM; with K-562 it was 185 nM; in the test with MV-4-11, 37.3 nM. Further, the “THP-1 TGI” value in the test with THP-1 is 118 nM. For the same compound, the IC50 on BRD3 came out at 34 nM; at CREBBP, 3200 nM; on BRD2, 44 nM; on BRD4, 32 nM. The “K-562 TGI” value in the test with K-562 is greater than 10000 nM. For the same compound, in the test with MV-4-11, the “MV-4-11 TGI” value was 90.4 nM.
With `Cn1ccc2c1C(c1ccc(Cl)c(F)c1)N(c1cc(Cl)c(=O)n(C)c1)C2=O` (stereo not drawn) [Example 90, 5-(5-chloro-1-methyl-6-oxo-1,6-dihydropyridin-3-yl)-6-(4-chloro-3-fluorophenyl)-1-methyl-5,6-dihydropyrrolo[3,4-b]pyrrol-4(1H)-one], the GI50 in the test on THP-1 was 218 nM; with K-562, 618 nM; with MV-4-11 it was 222 nM. Further, the “THP-1 TGI” value in the test on THP-1 is 446.5 nM. Besides, the IC50 worked out at 196 nM on BRD3, 1450 nM at CREBBP, 265 nM at BRD2 and 267 nM at BRD4. Moreover, the “K-562 TGI” value with K-562 was greater than 10000 nM. In the test with MV-4-11, the “MV-4-11 TGI” value came to 407.5 nM.
Turning to `CC(=O)N1CC(n2cc(C)c3c2C(c2ccc(Cl)cc2)N(c2cc(C)c4nnc(C)n4c2)C3=O)C1` (stereo not drawn) [Example 7, 1-(1-acetylazetidin-3-yl)-6-(4-chlorophenyl)-5-(3,8-dimethyl-[1,2,4]triazolo[4,3-a]pyridin-6-yl)-3-methyl-5,6-dihydropyrrolo[3,4-b]pyrrol-4(1H)-one], the GI50 with THP-1 was determined as 196 nM; in the test with K-562, 2060 nM; in the test with MV-4-11 it was 50.2 nM. Besides, the “THP-1 TGI” value in the test on THP-1 turned out to be 449.5 nM. Further, the IC50 at BRD3 came out at 16 nM; at CREBBP, 7600 nM; on BRD2, 32 nM; on BRD4 it was 17 nM. In addition, the “K-562 TGI” value in the test with K-562 was greater than 10000 nM. Moreover, in the test on MV-4-11, the “MV-4-11 TGI” value turned out to be 135.8 nM.
On to `CNC(=O)c1cn(C)c2c1C(=O)N(c1cc(C)c3nnc(C)n3c1)C2c1ccc(Cl)cc1` (stereo not drawn) [Example 99, 6-(4-chlorophenyl)-5-(3,8-dimethyl-[1,2,4]triazolo[4,3-a]pyridin-6-yl)-N,1-dimethyl-4-oxo-1,4,5,6-tetrahydropyrrolo[3,4-b]pyrrole-3-carboxamide], for which the GI50 with THP-1 turned out to be 27.8 nM; with K-562, 138 nM; in the test with MV-4-11, 13.6 nM. In addition, in the test with THP-1, the “THP-1 TGI” value came out at 96 nM. The IC50 is 13 nM at BRD3, greater than 37000 nM on CREBBP, 16 nM on BRD2 and less than 11 nM on BRD4. The “K-562 TGI” value in the test with K-562 was greater than 10000 nM. The “MV-4-11 TGI” value in the test with MV-4-11 is 38.3 nM.
Take `Cc1cc(N2C(=O)c3ccn(C)c3C2c2ccc(Cl)cc2)cn(C)c1=O` (stereo not drawn) [Example 72, 6-(4-chlorophenyl)-5-(1,5-dimethyl-6-oxo-1,6-dihydropyridin-3-yl)-1-methyl-5,6-dihydropyrrolo[3,4-b]pyrrol-4(1H)-one]: the GI50 turned out to be 159 nM in the test on THP-1, 294 nM in the test with K-562 and 76.4 nM in the test on MV-4-11. Also, the “THP-1 TGI” value in the test with THP-1 amounted to 301 nM. Moreover, the IC50 at BRD3 is 90.8 nM; at CREBBP, 1430 nM; at BRD2, 170 nM; at BRD4 it was 89.7 nM. The “K-562 TGI” value in the test on K-562 was greater than 10000 nM. For the same compound, in the test with MV-4-11, the “MV-4-11 TGI” value stood at 125 nM.
Turning to `COc1ccc(C2c3c(ccn3C)C(=O)N2c2cc(C)c(=O)n(C)c2)cc1` (stereo not drawn) [Example 84, 5-(1,5-dimethyl-6-oxo-1,6-dihydropyridin-3-yl)-6-(4-methoxyphenyl)-1-methyl-5,6-dihydropyrrolo[3,4-b]pyrrol-4(1H)-one], the figures for the GI50 with THP-1, in the test with K-562 and in the test with MV-4-11 were 167 nM, 548 nM and 158 nM, respectively. The “THP-1 TGI” value in the test on THP-1 worked out at 419.5 nM. Besides, the IC50 came to 161 nM at BRD3, 4700 nM at CREBBP, 196 nM on BRD2 and 230 nM at BRD4. The “K-562 TGI” value in the test with K-562 was greater than 10000 nM. For the same compound, the “MV-4-11 TGI” value with MV-4-11 came to 338.5 nM.
With `CCOC(=O)n1cc(C)c2c1C(c1ccc(Cl)cc1)N(c1cc(C)c3nnc(C)n3c1)C2=O` (stereo not drawn) [Example 11, Ethyl 6-(4-chlorophenyl)-5-(3,8-dimethyl-[1,2,4]triazolo[4,3-a]pyridin-6-yl)-3-methyl-4-oxo-5,6-dihydropyrrolo[3,4-b]pyrrole-1(4H)-carboxylate], the GI50 worked out at 26 nM in the test on THP-1, 113 nM with K-562 and 18.7 nM with MV-4-11. For the same compound, in the test with THP-1, the “THP-1 TGI” value came to 58.95 nM. The IC50 at BRD3 was 50 nM; on CREBBP it was 7300 nM; on BRD2, 39 nM; on BRD4 it was 38 nM. Besides, in the test on K-562, the “K-562 TGI” value was greater than 10000 nM. In the test with MV-4-11, the “MV-4-11 TGI” value is 31.55 nM.
`Cc1cc(N2C(=O)c3ccn(C(=O)N(C)C)c3C2c2ccc(Cl)cc2)cn2c(C)nnc12` (stereo not drawn) [Example 24, 6-(4-chlorophenyl)-5-(3,8-dimethyl-[1,2,4]triazolo[4,3-a]pyridin-6-yl)-N,N-dimethyl-4-oxo-5,6-dihydropyrrolo[3,4-b]pyrrole-1(4H)-carboxamide]: the GI50 in the test with THP-1 was determined as 96.4 nM; with K-562, 527 nM; with MV-4-11, 92.8 nM. For the same compound, the “THP-1 TGI” value in the test on THP-1 worked out at 267.5 nM. Also, the IC50 was 87 nM on BRD3, 13300 nM at CREBBP, 220 nM at BRD2 and 80 nM on BRD4. The “K-562 TGI” value in the test on K-562 was greater than 10000 nM. In the test with MV-4-11, the “MV-4-11 TGI” value came to 152 nM.
Consider `Cc1cc(N2C(=O)c3cc(C4CC4)n(C)c3C2c2ccc(Cl)cc2)cn(C)c1=O` (stereo not drawn) [Example 68, 6-(4-chlorophenyl)-2-cyclopropyl-5-(1,5-dimethyl-6-oxo-1,6-dihydropyridin-3-yl)-1-methyl-5,6-dihydropyrrolo[3,4-b]pyrrol-4(1H)-one], for which the GI50 is 46.8 nM in the test on THP-1, 148 nM in the test on K-562 and 28.7 nM with MV-4-11. Moreover, the “THP-1 TGI” value with THP-1 was found to be 96 nM. The IC50 at BRD3 was 52.2 nM; at CREBBP, 620 nM; at BRD2, 67.2 nM; at BRD4, 63.2 nM. Also, the “K-562 TGI” value in the test on K-562 is greater than 10000 nM. Further, the “MV-4-11 TGI” value in the test with MV-4-11 turned out to be 51.7 nM.
